Data from patent US7119189B2, “Metabotropic GABA [B] receptors, receptor-specific ligands and their uses” (Novartis AG, priority 1997, dated 2006).
Entries after “also recorded” stand apart in the source; their conditions may differ. Read-outs that look alike come from different tables or passages of the source.

Experiments:
[1] = molecular target: T1, recombinant GABABR1a receptors in membranes from COS 1 cells (Rattus norvegicus, UniProt Q9Z0U4); assay: biochemical; format: binding
T1 construct: The protein expressed from the 4,376 bp cDNA clone has an apparent molecular mass of about 120 kDa; expressed in transfected cells; host or cells: COS1 cells, transient transfection with the cDNA clone in pcDNAI

[2] = molecular target: GABAB receptors in membranes from rat cerebral cortex (Rattus norvegicus, UniProt Q9Z0U4); assay: biochemical; format: binding
[3] = tested on: native GABAB receptors (130K and 100K proteins); settings: for competition with / displacement of [125I]CGP71872 at native receptors: FIG. 4b; for [125I]CGP71872 labelling in the presence of excess unlabelled antagonist: 1 μM (10^−6 M) competitor
Description: The incubation is terminated by centrifugation at 20 000×g for 10 min at 4° C. This step removed free unbound photoaffinity label. […] The suspension is centrifuged at 20 000×g for 10 min and resuspended at a concentration of 8 mg/ml protein in buffer. […] The labelled membranes could be stored at −80° C.

[4] = tested on: non-transfected HEK293 cells; assay: Forskolin-stimulated cAMP formation in untransfected HEK293 cells (control); format: cell-based
GABABR1a = molecular target: T2, GABABR1a (Rattus norvegicus, UniProt Q9Z0U4); assay: Forskolin-stimulated cAMP accumulation in HEK293 cells stably expressing GABABR1a; format: cell-based
T2 construct: The ability of GABABR1a stably expressed in HEK293 cells to reduce forskolin-stimulated cAMP accumulation is analysed; expressed in transfected cells
Description: HEK293 cells stably expressing GABABR1a are treated with 20 μM forskolin (Fsk) to stimulate cAMP formation (100%). […] Bars represent mean values+S.E.M. of at least three independent experiments performed in quadruplicate.
GABAB receptors are described to inhibit adenylate cyclase activity, stimulate phospholipase A2, activate K^+-channels, inactivate voltage-dependent Ca^2+-channels and to modulate inositol phospholipid hydrolysis. As GABABR1a and -b have identical sequence in all domains predicted to be intracellular they are expected to be able to couple to the same effector systems. […] The ability of GABABR1a stably expressed in HEK293 cells to reduce forskolin-stimulated cAMP accumulation is analysed (FIG. 5). We chose concentrations of forskolin and L-baclofen that should produce a maximal effect.

[5] = tested on: GABAA, benzodiazepine, kainate, AMPA, NMDA receptors, strychnine independent binding site at NMDA receptors, muscarinic cholinergic, α1- and α2-adrenergic …; assay: Receptor selectivity assays at 1 μM; settings: concentration of 1 μM
Description: […]. The incubation is terminated by filtration through GF/B Whatman glass fibre filters. […]. The compound is therefore selective for GABAB receptors. […].

T2 sequence (Q9Z0U4 20-960): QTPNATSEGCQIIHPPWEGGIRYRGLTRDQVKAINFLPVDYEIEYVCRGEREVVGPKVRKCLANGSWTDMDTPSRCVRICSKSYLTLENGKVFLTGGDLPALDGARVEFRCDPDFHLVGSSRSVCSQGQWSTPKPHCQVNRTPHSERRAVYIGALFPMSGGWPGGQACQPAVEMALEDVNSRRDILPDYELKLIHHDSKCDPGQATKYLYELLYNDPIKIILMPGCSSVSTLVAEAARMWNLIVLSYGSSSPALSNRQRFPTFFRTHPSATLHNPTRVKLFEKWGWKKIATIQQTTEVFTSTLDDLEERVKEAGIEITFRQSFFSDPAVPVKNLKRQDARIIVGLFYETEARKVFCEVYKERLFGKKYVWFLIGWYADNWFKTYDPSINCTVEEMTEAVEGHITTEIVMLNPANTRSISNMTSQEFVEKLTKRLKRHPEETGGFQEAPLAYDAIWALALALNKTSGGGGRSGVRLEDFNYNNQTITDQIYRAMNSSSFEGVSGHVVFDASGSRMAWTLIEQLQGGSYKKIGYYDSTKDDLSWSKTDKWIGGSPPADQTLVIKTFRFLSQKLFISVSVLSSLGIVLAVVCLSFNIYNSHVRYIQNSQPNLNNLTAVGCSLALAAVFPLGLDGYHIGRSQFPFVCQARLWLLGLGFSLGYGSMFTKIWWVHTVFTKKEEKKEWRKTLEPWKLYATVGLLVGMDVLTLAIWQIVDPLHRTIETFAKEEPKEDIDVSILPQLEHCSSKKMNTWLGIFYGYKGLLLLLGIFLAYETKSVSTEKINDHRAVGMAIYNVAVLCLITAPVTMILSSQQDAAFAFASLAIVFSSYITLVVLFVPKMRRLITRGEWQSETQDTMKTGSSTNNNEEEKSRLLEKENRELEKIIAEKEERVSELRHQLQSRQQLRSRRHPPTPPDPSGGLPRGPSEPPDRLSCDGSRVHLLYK
T1 sequence (Q9Z0U4 20-960): as above
Chain of GABAB receptors in membranes from rat cerebral cortex (Q9Z0U4 164-960 limits assumed): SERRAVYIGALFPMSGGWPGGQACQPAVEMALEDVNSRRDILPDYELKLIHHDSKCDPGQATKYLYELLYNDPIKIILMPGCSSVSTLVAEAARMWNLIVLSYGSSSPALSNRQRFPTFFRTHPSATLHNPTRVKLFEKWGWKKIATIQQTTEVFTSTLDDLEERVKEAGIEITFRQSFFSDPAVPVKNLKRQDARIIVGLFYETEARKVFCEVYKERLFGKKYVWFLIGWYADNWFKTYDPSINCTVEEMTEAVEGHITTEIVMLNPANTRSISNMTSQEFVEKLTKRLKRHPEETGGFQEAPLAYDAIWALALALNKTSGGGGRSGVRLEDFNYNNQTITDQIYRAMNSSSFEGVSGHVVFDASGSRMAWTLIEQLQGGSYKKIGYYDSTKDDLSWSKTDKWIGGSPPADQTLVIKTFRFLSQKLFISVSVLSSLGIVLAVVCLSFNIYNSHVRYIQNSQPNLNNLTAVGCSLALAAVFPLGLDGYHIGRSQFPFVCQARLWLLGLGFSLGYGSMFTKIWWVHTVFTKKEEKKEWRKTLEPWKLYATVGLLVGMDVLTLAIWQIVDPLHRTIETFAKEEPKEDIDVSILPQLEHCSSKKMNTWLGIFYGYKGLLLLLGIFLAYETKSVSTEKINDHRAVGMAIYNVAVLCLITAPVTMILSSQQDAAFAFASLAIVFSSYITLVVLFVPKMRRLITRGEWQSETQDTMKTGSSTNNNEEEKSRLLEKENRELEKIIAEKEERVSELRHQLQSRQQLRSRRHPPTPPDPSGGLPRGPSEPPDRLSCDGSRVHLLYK
Chain of GABAB receptors in membranes from rat cerebral cortex (O88871 41-940, further chain): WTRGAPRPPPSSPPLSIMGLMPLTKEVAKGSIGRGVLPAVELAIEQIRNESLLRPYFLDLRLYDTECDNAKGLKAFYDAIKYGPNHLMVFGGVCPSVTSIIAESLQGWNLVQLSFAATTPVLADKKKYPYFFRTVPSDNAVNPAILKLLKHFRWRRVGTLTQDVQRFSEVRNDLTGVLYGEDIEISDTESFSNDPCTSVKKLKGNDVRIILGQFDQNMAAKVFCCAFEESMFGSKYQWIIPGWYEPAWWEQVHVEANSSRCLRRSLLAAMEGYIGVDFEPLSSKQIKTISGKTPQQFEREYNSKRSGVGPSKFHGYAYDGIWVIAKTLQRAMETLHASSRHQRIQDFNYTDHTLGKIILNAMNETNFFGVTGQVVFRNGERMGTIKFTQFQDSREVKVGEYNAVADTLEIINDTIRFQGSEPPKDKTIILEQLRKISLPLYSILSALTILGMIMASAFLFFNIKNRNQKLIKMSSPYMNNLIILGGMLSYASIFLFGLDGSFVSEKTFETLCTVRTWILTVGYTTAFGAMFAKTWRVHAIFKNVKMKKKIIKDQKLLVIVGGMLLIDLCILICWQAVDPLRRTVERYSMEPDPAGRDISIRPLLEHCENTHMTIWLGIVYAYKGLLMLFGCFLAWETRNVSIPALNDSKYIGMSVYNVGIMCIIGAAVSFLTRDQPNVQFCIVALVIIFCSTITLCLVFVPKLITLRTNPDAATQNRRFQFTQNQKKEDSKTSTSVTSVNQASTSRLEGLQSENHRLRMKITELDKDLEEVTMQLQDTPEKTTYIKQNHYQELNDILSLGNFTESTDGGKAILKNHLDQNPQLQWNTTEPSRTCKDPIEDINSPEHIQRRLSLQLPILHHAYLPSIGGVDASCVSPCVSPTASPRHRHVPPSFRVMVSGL

## CCOC(OCC)P(=O)(O)CCCN [CGP 35348]
[1]
  IC50: 20 µM
[2]
  IC50: 9.3 µM
[3]
  competition with / displacement of [125I]CGP71872 at native receptors: effective displacers

## NC[C@H](CC(=O)O)c1ccc(Cl)cc1 [L-baclofen]
[4]
  inhibition of forskolin-stimulated cAMP formation in untransfected cells: does not inhibit; also recorded: No L-baclofen response

## pertussis toxin
GABABR1a; 10 ng/ml for 15–20 h
  effect of preincubation on the L-baclofen response / modulation of adenylate cyclase: sensitive; also recorded: completely abolishes the effect of L-baclofen

## C[C@@H](NC[C@H](O)CP(=O)(O)CCCCCNC(=O)CCc1ccc(O)c(I)c1)c1cccc(C(=O)O)c1 [CGP 64213]
[5]
  activity in other receptor assays: inactive

## NCCC[PH](=O)O [CGP 27492 (APPA), 3-aminopropyl-phosphinic acid]
[3]
  competition with / displacement of [125I]CGP71872 at native receptors: compete

## C[C@H](NC[C@H](O)CP(=O)(O)CC1CCCCC1)c1ccc(Cl)c(Cl)c1 [CGP 54626A]
GABABR1a; 10 μM CGP54626A (FIG. 5), 300 μM L-baclofen
  effect on the L-baclofen inhibition of cAMP accumulation: antagonised
[1]; recombinant GABABR1a expressed in COS1 cells, read-out: Inhibition of [125I]CGP 64213 binding, COS1 cells IC50
  IC50: 0.0016 µM
[3]
  [125I]CGP71872 labelling in the presence of excess unlabelled antagonist: no radioactivity is bound to the membranes
  competition with / displacement of [125I]CGP71872 at native receptors: effective displacers
[3]; listed as CGP54626A
  [125I]CGP71872 labelling in the presence of excess unlabelled antagonist: inhibited
